Earlier results as cited in patent US6399797B1, “Vitamin D analogues” (Leo Pharmaceutical Products Ltd. A/S (Løvens kemiske Fabrik …, priority 1997, dated 2002).

Key:
[1] = test system: experimental animal models; details: systemically administered
[2] = test system: transplanted islets in diabetic NOD mice; details: alone or in combination with cyclosporin A
[3] = test system: cardiac and small bowel grafts; details: rats

Compound: C=C1/C(=C\C=C2/CCC[C@]3(C)[C@@H]([C@@H](C)OCCCC(O)(CC)CC)CC[C@@H]23)C[C@@H](O)C[C@@H]1O [KH 1060]
- immunosuppressive activities in vivo [1]: have shown immunosuppressive activities in vivo
- prevention of autoimmune destruction of transplanted islets [2]: prevent autoimmune destruction of transplanted islets

Compound: C=C1/C(=C\C=C2/CCC[C@]3(C)[C@@H]([C@H](C)CCCC(C)(C)O)CC[C@@H]23)C[C@@H](O)C[C@@H]1O [MC 1288]
- immunosuppressive activities in vivo [1]: have shown immunosuppressive activities in vivo
- survival of cardiac and small bowel grafts [3]: able to prolong survival of cardiac and small bowel grafts
